Values of other authors as cited in patent US20250339362A1, “SKINCARE SUPPLEMENTS” (Natals, Inc., priority 2024, published 2025).
Read-outs that look alike come from different tables or passages of the source.

Tested on: male and female subjects ages 35-64 years
Details: 120 mg HA capsule orally once per day, Visioscan

For hyaluronic acid [HA], the “facial skin smoothness: Statistical significance compared to placebo” value (Week 8) is given as “No” and the “facial skin smoothness: Statistical significance compared to placebo” value (Week 12) is given as “statistically significant reduction in smoothness”.
